Where two headings read alike, the source gives them in different places. Each block holds one compound with its values, some of them ahead of it.
Experiments:
[1] = target: T1, oestrone sulphatase (Rattus norvegicus, UniProt P15589); experiment: Inhibition of oestrone sulphatase activity in vivo in rat liver (NOMATE); settings: 0.1 mg/Kg/day for five days orally; rat liver tissue; compared with untreated controls
T1 construct: samples of liver tissue were obtained; from tissue; host or cells: rat liver
T1 sequence (P15589 20-577): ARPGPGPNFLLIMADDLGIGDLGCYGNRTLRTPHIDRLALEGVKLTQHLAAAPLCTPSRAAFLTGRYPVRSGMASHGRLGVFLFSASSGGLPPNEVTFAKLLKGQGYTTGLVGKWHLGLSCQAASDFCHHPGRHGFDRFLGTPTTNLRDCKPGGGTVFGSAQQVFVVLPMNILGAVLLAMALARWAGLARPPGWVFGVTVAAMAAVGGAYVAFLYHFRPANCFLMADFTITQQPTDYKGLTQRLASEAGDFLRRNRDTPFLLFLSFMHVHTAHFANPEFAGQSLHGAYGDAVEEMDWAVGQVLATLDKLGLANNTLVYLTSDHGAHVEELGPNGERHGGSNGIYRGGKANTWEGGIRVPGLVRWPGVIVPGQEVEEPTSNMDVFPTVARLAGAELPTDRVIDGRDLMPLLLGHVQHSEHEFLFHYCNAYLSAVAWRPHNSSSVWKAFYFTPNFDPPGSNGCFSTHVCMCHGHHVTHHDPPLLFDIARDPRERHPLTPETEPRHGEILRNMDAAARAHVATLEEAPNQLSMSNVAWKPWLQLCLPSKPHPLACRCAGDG
Protocol: (§1) Using 17-deoxy oestrone-3-O-sulphamate (NOMATE, FIG. 5 Formula IV where X=—OSO2NH2, Y=—CH2— and R1 and R2=H, and FIG. 13) as a representative example, the ability of this compound to inhibit oestrone sulphatase activity in vivo was examined in rats. The oestrogenicity of this compound was examined in ovariectomised rats. In this model compounds which are oestrogenic stimulate uterine growth.
NOMATE (0.1 mg/Kg/day for five days) was administered orally to rats with another group of animals receiving vehicle only (propylene glycol). At the end of the study samples of liver tissue were obtained and oestrone sulphatase activity assayed using ^3H oestrone sulphate as the substrate as previously described.

[2] = tested on: uterine growth; experiment: In vivo oestrogenicity: uterine weight in ovariectomised rats (NOMATE); design: species or system rat; settings: 0.1 mg/Kg/day for five days orally
Protocol: as §1
NOMATE (0.1 mg/Kg/day for five days) was administered orally to rats with another group of animals receiving vehicle only (propylene glycol). At the end of the study uteri were obtained and weighed with the results being expressed as uterine weight/whole body weight×100.

[3] = target: T2, oestrone sulphatase (Homo sapiens, UniProt P08842)
T2 sequence (P08842 22-583): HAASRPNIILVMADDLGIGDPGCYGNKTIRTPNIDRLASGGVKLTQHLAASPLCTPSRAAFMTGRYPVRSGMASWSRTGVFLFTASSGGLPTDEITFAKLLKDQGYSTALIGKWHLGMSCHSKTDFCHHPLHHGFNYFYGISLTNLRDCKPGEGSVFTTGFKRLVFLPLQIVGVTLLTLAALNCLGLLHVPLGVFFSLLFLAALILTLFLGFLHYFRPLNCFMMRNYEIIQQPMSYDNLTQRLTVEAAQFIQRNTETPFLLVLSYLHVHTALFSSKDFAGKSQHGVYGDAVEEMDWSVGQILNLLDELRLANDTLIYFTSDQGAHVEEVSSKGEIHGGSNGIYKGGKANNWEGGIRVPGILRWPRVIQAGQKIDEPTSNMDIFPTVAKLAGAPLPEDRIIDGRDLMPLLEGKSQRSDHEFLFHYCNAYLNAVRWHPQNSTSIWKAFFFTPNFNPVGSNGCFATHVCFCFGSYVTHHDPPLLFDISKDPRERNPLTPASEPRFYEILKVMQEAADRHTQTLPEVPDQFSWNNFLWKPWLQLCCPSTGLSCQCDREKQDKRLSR

[4] = target: T3, oestrone sulphatase (E1-STS) (Homo sapiens, UniProt P08842); type: cell-based; settings: intact MCF-7 cells, 20 h
T3 sequence (P08842 22-583): T2 sequence (P08842 22-583)

[5] = target: T4, Steroid sulphatase (Steryl Sulphatase EC3.1.6.2) (Homo sapiens, UniProt P08842); experiment: Steroid sulphatase activity in intact MCF-7 cells; type: cell-based; settings: for Steroid Sulphatase Activity: mean ± 1 S.D., n = 3
T4 construct: endogenous in cells; host or cells: MCF-7 human breast cancer cells
T4 sequence (P08842 22-583): T2 sequence (P08842 22-583)
Protocol: Steroid sulphatase is defined as: Steryl Sulphatase EC3.1.6.2.
Steroid sulphatase activity was measured in vitro using intact MCF-7 human breast cancer cells. This hormone dependent cell line is widely used to study the control of human breast cancer cell growth. […] Cells were maintained in Minimal Essential Medium (MEM) (Flow Laboratories, Irvine, Scotland) containing 20 mM HEPES, 5% foetal bovine serum, 2 mM glutamine, nonessential amino acids and 0.075% sodium bicarbonate. Up to 30 replicate 25 cm^2 tissue culture flasks were seeded with approximately 1×10^5 cells/flask using the above medium. Cells were grown to 80% confluency and medium was changed every third day.
Each batch of experiments included incubations of microsomes prepared from a sulphatase-positive human placenta (positive control) and flasks without cells (to assess apparent non-enzymatic hydrolysis of the substrate). The number of cell nuclei per flask was determined using a Coulter Counter after treating the cell monolayers with Zaponin. One flask in each batch was used to assess cell membrane status and viability using the Trypan Blue exclusion method (Phillips, H. J. (1973) In: Tissue culture and applications,[eds: Kruse, D. F. & Patterson, M. K.]; pp. 406–408; Academic Press, New York).
Unpaired Student's t-test was used to test the statistical significance of results.
An identical experimental protocol to that described in Example 4 was used to generate results for oestrone-3-N,N-diimethylsulphamate except that incubations contained oestrone-3-N,N-dimethylsulphaiate (5 concentrations: 0; 0.001 μM; 0.01 μM; 0.1 μM; 1 μM) in place of oestrone-3-sulphamate.

[6] = target: T4, Steroid sulphatase (Steryl Sulphatase EC3.1.6.2); experiment: Steroid sulphatase activity in MCF-7 cells pre-incubated with inhibitor and washed; type: cell-based; settings: pre-treatment 2 hours with 0.1 μM, cells washed 3 times; mean ± 1 S.D., n = 3
[7] = target: T5, E1-STS (Homo sapiens, UniProt P08842); experiment: Hydrolysis of coumarin sulphate (12) by placental microsomes, TLC; type: biochemical
T5 construct: from tissue; host or cells: placental microsomes (100,000 g fraction)
T5 sequence (P08842 22-583): T2 sequence (P08842 22-583)

[8] = target: T6, Steroid sulphatase (Homo sapiens, UniProt P08842); experiment: biochemical
T6 sequence (P08842 22-583): T2 sequence (P08842 22-583)

[9] = target: T6, Steroid sulphatase; experiment: Steroid sulphatase activity in placental microsomes; settings: for Steroid Sulphatase Activity: mean of 2 estimates
[10] = target: T7, Steroid sulphatase (Rattus norvegicus, UniProt P15589); experiment: Steroid sulphatase activity in liver microsome preparations from rats treated subcutaneously; type: in vivo; design: except that the tissue source was rat liver; from tissue; host or cells: liver of female Wistar rats; settings: 10 mg/kg/day s.c. for 7 days, rat liver microsomes; for Steroid Sulphatase Activity: mean ± 1 S.D., n = 3
T7 sequence (P15589 20-577): T1 sequence (P15589 20-577)

[11] = tested on: uterine weight; experiment: Oestrogenic activity: uterine weight in ovariectomised rats (compound 14); type: in vivo, rat; settings: 1 mg/kg subcutaneously for 5 days
[12] = target: T8, E1-STS (Rattus norvegicus, UniProt P15589); experiment: E1-STS activity in uteri of treated ovariectomised rats; type: in vivo; settings: 1 mg/kg subcutaneously for 5 days, compared with untreated animals
T8 construct: The E1-STS activity in the uteri obtained from these animals; from tissue; host or cells: rat uterus
T8 sequence (P15589 20-577): T1 sequence (P15589 20-577)

[13] = target: T9, sulphatase (Rattus norvegicus, UniProt P15589); experiment: Sulphatase activity in white blood cells of rats after oral dosing; type: in vivo; settings: for % Inhibition MD / % Inhibition SD: white blood cells; for % Inhibition SD: single dose
T9 construct: from tissue; host or cells: rat white blood cells
T9 sequence (P15589 20-577): T1 sequence (P15589 20-577)
Protocol: Inhibition of sulphatase activity was assessed in white blood cells (wbcs) that were collected after a SD or MD. Sulphatase activity was assayed using labelled oestrone sulphate as the substrate and measuring the release of oestrone.

[14] = Chemical and thermal stability of compound 12; type: physicochemical; settings: sodium hydroxide in methanol
Text: Two equivalents of sodium hydroxide are required for consuming excess sulphur trioxide-pyridine complex to yield the neutral sodium sulphate. Insufficient amount of sodium hydroxide will therefore lead to the formation of sodium hydrogen sulphate which is acidic.

SMILES: NS(=O)(=O)Oc1ccc2c(C(F)(F)F)cc(=O)oc2c1 [compound 16, 4-(trifluoromethylcoumarin)-7-O-sulphamate]
inhibition of oestrone sulphatase at 10 μM [4]: 71.5%

SMILES: C[C@]12CC[C@@H]3c4ccc(OS(N)(=O)=O)cc4CC[C@H]3[C@@H]1CCC2=O [Oestrone-3-sulphamate]
inhibition at 10 pM ([5]; MCF7, inhibitor 0.01 nM, read-out: % reduction over control (% inhibition)): 17.2%
inhibition at 0.0001 µM ([5]; MCF7, inhibitor 0.1 nM, read-out: % reduction over control (% inhibition)): 60.9%
inhibition at 0.001 µM ([5]; MCF7, inhibitor 1 nM, read-out: % reduction over control (% inhibition)): 95%
inhibition at 0.01 µM ([5]; MCF7, inhibitor 0.01 μM, read-out: % reduction over control (% inhibition)): 98.8%
inhibition at 0.1 µM ([5]; MCF7, inhibitor 0.1 μM, read-out: % reduction over control (% inhibition)): 99.2%
inhibition at 1 µM ([5]; MCF7, inhibitor 1 μM, read-out: % reduction over control (% inhibition)): 99.5%
Steroid Sulphatase Activity ([5]; inhibitor 0.01 pM): 362.3 ± 21.2 fmol/20 hr/10^6 cells
Steroid Sulphatase Activity ([5]; inhibitor 0.1 pM): 330.7 ± 17.8 fmol/20 hr/10^6 cells
Steroid Sulphatase Activity ([5]; inhibitor 1 pM): 321.8 ± 6.2 fmol/20 hr/10^6 cells
Steroid Sulphatase Activity ([5]; inhibitor 0.01 nM): 265.1 ± 11.0 fmol/20 hr/10^6 cells
Steroid Sulphatase Activity ([5]; inhibitor 0.1 nM): 124.8 ± 12.4 fmol/20 hr/10^6 cells
Steroid Sulphatase Activity ([5]; inhibitor 1 nM): 16.49 ± 4.7 fmol/20 hr/10^6 cells
Steroid Sulphatase Activity ([5]; inhibitor 0.01 μM): 3.92 ± 0.4 fmol/20 hr/10^6 cells
Steroid Sulphatase Activity ([5]; inhibitor 0.1 μM): 2.53 ± 1.1 fmol/20 hr/10^6 cells
Steroid Sulphatase Activity ([5]; inhibitor 1 μM): 1.68 ± 0.7 fmol/20 hr/10^6 cells
Steroid Sulphatase Activity ([5]; inhibitor 1 fM): 353.3 ± 39.0 fmol/20 hr/10^6 cells
Steroid Sulphatase Activity [6]: 1.7 ± 0.2 fmol/20 hr/10^6 cells
effect on hydrolysis of compound (12) by E1-STS (in words) ([7]; EMATE 10 μM): reduced the hydrolysis of compound (12) by E1-STS
IC50 [8]: 70 nM
% reduction over control (% inhibition) ([9]; 0.05 µM): 44.0%
% reduction over control (% inhibition) ([9]; 0.1 μM): 60.2%
% reduction over control (% inhibition) ([9]; 0.2 µM): 81.8%
% reduction over control (% inhibition) ([9]; 0.4 µM): 89.2%
% reduction over control (% inhibition) ([9]; 0.6 µM): 92.0%
% reduction over control (% inhibition) ([9]; 0.8 µM): 93.6%
% reduction over control (% inhibition) ([9]; 1 μM): 93.3%
Steroid Sulphatase Activity ([9]; inhibitor 0.05 μM): 430.4 pmol/hr/0.1 mg protein
Steroid Sulphatase Activity ([9]; inhibitor 0.1 μM): 305.9 pmol/hr/0.1 mg protein
Steroid Sulphatase Activity ([9]; inhibitor 0.2 μM): 140.0 pmol/hr/0.1 mg protein
Steroid Sulphatase Activity ([9]; inhibitor 0.4 μM): 83.3 pmol/hr/0.1 mg protein
Steroid Sulphatase Activity ([9]; inhibitor 0.6 μM): 61.8 pmol/hr/0.1 mg protein
Steroid Sulphatase Activity ([9]; inhibitor 0.8 μM): 49.2 pmol/hr/0.1 mg protein
Steroid Sulphatase Activity ([9]; inhibitor 1.0 μM): 51.6 pmol/hr/0.1 mg protein
% reduction over control ([10]; assay substrate DHA-S): 94.2%
Steroid Sulphatase Activity ([10]; assay substrate DHA-S): 0.1 ± 0.01 nmol/30 min/200 mg protein
% reduction over control ([10]; assay substrate E1-S): 98.4%
Steroid Sulphatase Activity ([10]; assay substrate E1-S): 0.34 ± 0.1 nmol/30 min/200 mg protein

SMILES: Cc1cc(=O)oc2cc(OS(=O)(=O)[O-])ccc12.[Na+] [Compound 12, 7-(Sulphoxy)4-Methylcoumarin. sodium salt, reference compound]
substrate for E1-STS (in words) ([7]; 100 μg incubated for 1 hour with placental microsomes): is indeed a substrate for the sulphatase
stability in bases and acidic conditions (in words) [14]: stable in bases such as sodium hydroxide in methanol but not in acidic conditions

Further lines, with some results ahead:

inhibition of oestrone sulphatase activity in vivo [1]: 98%
effect on uterine growth (oestrogenicity, in words) [2]: no significant effect on uterine growth
% Inhibition (Mean) Placental Microsomes ([3]; concentration tested 0.1 mM (so in the source)): 97.2%
% Inhibition (Mean) Placental Microsomes ([3]; concentration tested 1 mM (so in the source)): 99.5%
% Inhibition (Mean) Placental Microsomes ([3]; concentration tested 10 mM (so in the source)): 99.5%
% Inhibition (Mean) Placental Microsomes ([3]; concentration tested 25 mM (so in the source)): 99.7%
SMILES: C[C@@]12CCC[C@H]1[C@@H]1CCc3cc(OS(N)(=O)=O)ccc3[C@H]1CC2 [NOMATE, 17-deoxy oestrone-3-O-sulphamate]

inhibition of E1-STS activity in the uteri [12]: 89.4%
% Inhibition MD ([13]; 0.1 mg/kg oral daily for seven days): 65%
% Inhibition SD ([13]; 0.1 mg/kg oral): 72%
% Inhibition MD ([13]; 1.0 mg/kg oral daily for seven days): 85%
% Inhibition SD ([13]; 1.0 mg/kg oral): 85%
% Inhibition MD ([13]; 10.0 mg/kg oral daily for seven days): 89%
% Inhibition SD ([13]; 10.0 mg/kg oral): 96%
oral activity in rats (in words) ([13]; oral, rats): potent oral activity
SMILES: Cc1cc(=O)oc2cc(OS(N)(=O)=O)ccc12 [compound 14]
uterine weight (oestrogenic activity, in words) [11]: did not result in any significant increase in the uterine weight

From patent US7098199B2 (Sterix Limited, priority 1991, dated 2006)
